{
  "source": "paper PMC9057582",
  "about": "“HIF inhibitor 32-134D eradicates murine hepatocellular carcinoma in combination with anti-PD1 therapy” (The Journal of Clinical Investigation, 2022)",
  "key": {"[1]": {"tested_on": "HIF transcriptional activity", "test": "HIF-dependent luciferase reporter assay (FLuc/RLuc ratio) in Hep3B-c1 cells", "assay_type": "cell-based", "conditions": "Homo sapiens, 1% O2, 24 hours, read-out: IC50, inhibition of HIF-dependent reporter gene expression", "text": "The NCI CellMiner database contains expression data for over 25,000 mRNAs in 60 human cancer cell lines that have been exposed to more than 20,000 chemical compounds ([49]). We searched CellMiner for a compound that induced changes in gene expression that were highly correlated with those induced by acriflavine, but which was structurally unrelated to acriflavine. Compounds that satisfied the above criteria were identified and subsequently analyzed in Hep3B-c1 cells ([50]), which are stably transfected with HIF-dependent reporter plasmid p2.1, in which firefly luciferase (FLuc) coding sequences are located downstream from a hypoxia-response element (HRE) and a basal SV40 promoter; and control reporter pSVR, in which Renilla luciferase (RLuc) coding sequences are downstream of the basal SV40 promoter only (Figure 1A). The FLuc/RLuc ratio in cells exposed to 1% O2 for 24 hours is a specific measure of HIF-dependent gene expression.\nFigure 1 Identification of HIF inhibitors. (A) Hep3B-c1 cells were stably transfected with firefly luciferase (FLuc) reporter p2.1, which contains a hypoxia-response element (HRE), and Renilla luciferase (RLuc) reporter pSVR. (B) Hep3B-c1 cells were incubated with vehicle (Veh; 0.1% DMSO; blue bars) or 10 μM 32-134D (red bars) at 20% O2 (n = 6) or 1% O2 (n = 12) for 24 hours. Cell lysates were assayed for Fluc/Rluc activity (mean ± SEM); *P < 0.05 versus vehicle (χ^2 test). (C) Chemical structures and IC50 values for HIF inhibitors. (D and E) Hep3B cells were exposed to 20% O2 with vehicle, or 1% O2 with vehicle (blue bar), 32-134D (red bars), 33-063 (green bars), or PT2385 (brown bars) for 24 hours and CA9 (D) and EPO (E) mRNAs were quantified by RT-qPCR. […] (F) Hep3B cells were exposed to 20% or 1% O2 in the presence of vehicle or 1% O2 in the presence of 5 μM 32-134D (n = 3 each) for 24 hours. […]\nHep3B-c1 cells ([50]) were seeded on 24-well plates. […] FLuc/RLuc ratios were determined using the Dual Luciferase Reporter Assay System (Supplemental Table 6) and the VICTOR Nivo plate reader (PerkinElmer)."}, "[2]": {"tested_on": "HIF target genes in Hep3B cells", "test": "RT-qPCR of endogenous HIF target gene expression in Hep3B cells", "assay_type": "cell-based, human", "text": "Based on this hit, we synthesized analogs in which either halogen substitutions to the indole groups were altered or the central thiazole was replaced by imidazole, isoxazole, oxadiazole, oxazole, pyrazinone, pyridazine, pyrazine, pyrazole, pyridine, thiadiazole, triazine, or triazole. […] We focused on analyzing the effect of the bis-bromoindole thiazole 32-134D and the bis-indole thiadiazole 33-063 on endogenous HIF target gene expression in Hep3B cells. […] For comparison, we tested the effect of PT2385, which inhibited EPO, NDRG1, ANGPTL4, and VEGFA expression but had no effect on CA9, which is consistent with its HIF-2–selective mechanism of action ([44]). None of the compounds had any effect on RPL13A expression, which is neither induced by hypoxia nor regulated by HIFs (Supplemental Figure 2D).\nHuman Hep3B and mouse Hepa1-6 cells were purchased from ATCC and grown in high-glucose (4.5 mg/mL) Dulbecco’s modified Eagle’s medium supplemented with 10% (vol/vol) fetal bovine serum and 1% penicillin/streptomycin at 37°C in a 5% CO2/95% air incubator (Supplemental Table 6). Human cell line identity was authenticated by analysis of short tandem repeats, and all cell lines were maintained mycoplasma free, using PCR-based assays conducted at the Johns Hopkins University Genetic Resources Core Facility (JHU GRCF). Cells were subjected to hypoxia in a controlled atmosphere chamber (PLAS Labs) with ambient gas mixture containing 1% O2 and 5% CO2.\nRNA was extracted using TRIzol Reagent. Quantitative real-time PCR was conducted using SYBR Green PCR Master Mix and reactions were run using a Bio-Rad thermal cycler. Primer sequences and reagent sources are listed in Supplemental Table 5. The mRNA expression of target genes was normalized to the expression of 18S rRNA and the fold change (FC) was calculated based on the threshold cycle (Ct) as FC = 2^–Δ(ΔCt), where ΔCt = Cttarget gene – Ct18S rRNA and Δ(ΔCt) = ΔCttreatment – ΔCtcontrol. For RNA-seq, total RNA was isolated and treated with DNase (Qiagen). The JHU GRCF High-Throughput Sequencing facility prepared libraries and performed RNA-seq. The RNA-seq data were processed and interpreted using Genialis Expressions software (https://www.genialis.com/expressions/). An automated data analysis pipeline run in the Genialis platform consisted of the following: Sequence quality checks were performed on raw and trimmed reads with FastQC. Bbduk was used to trim adapters and filter out poor quality reads. Trimmed reads were then mapped to the STAR index (ENSEMBL 100) reference genome using the STAR ([93]) aligner. Gene expression levels were quantified with featureCounts ([94]), and differential gene expression analyses were performed with DESeq2 ([95]). […] Differential expression was determined with an FDR of less than 0.05 and mRNA FC of greater than 1.5 to identify hypoxia-induced genes and genes inhibited by 32-134D. Data used in this study have been deposited in the NCBI Gene Expression Omnibus database (GEO GSE195997).\nSupplemental Figure 2. Effect of 32-134D on gene expression in Hep3B cells. (A-D) Hep3B cells were exposed to 20% O2 in the presence of vehicle (first bar; no fill) or 1% O2 in the presence of: vehicle (blue bar) or the indicated concentration of 32-134D (bars with red fill) or 33-063 (bars with green fill), or PT2385 (bars with brown fill) for 24 hours and the indicated mRNAs were quantified by reverse transcription and quantitative real-time PCR (qPCR). Data are presented as mean + SEM (n = 3). *p < 0.05 vs white; **p < 0.01 vs blue (ANOVA with Bonferroni post-test). […]\n(G-H) Analysis of HIF-1a (G) and HIF-2a (H) […]\nmRNA expression in Hep3B cells exposed to vehicle or 32-134D at 20% or 1% O2 for 24"}},
  "data": [
    {"compound": "Brc1ccc2c(-c3csc(-c4c[nH]c5c(Br)cccc45)n3)c[nH]c2c1", "note": "[Compound 32-134D]", "values": [
      {"measurement": "IC50", "setting": "[1]", "result": 2500, "unit": "nM"},
      {"measurement": "hypoxia-induced ANGPTL4, VEGFA, NDRG1 and EPO mRNA expression", "setting": "[2]; Hep3B cells, 1% O2, 24 hours", "result": "significantly inhibited"},
      {"measurement": "hypoxia-induced CA9 mRNA expression (activated by HIF-1 only)", "setting": "[2]; Hep3B cells, 1% O2, 24 hours", "result": "significantly inhibited"},
      {"measurement": "HIF-1α or HIF-2α mRNA expression", "setting": "[2]; Hep3B, 24 hours", "result": "no effect"}
    ]}
  ]
}
